Measurements taken from patent publication US7550629B2, “Trifluoromethyl-containing phenylsulfonamide beta amyloid inhibitors” (Wyeth, priority 2006, dated 2009).
pEC50: −log10 of the molar value.

Columns and labels:
beta amyloid 40 = assay: Aβ40/42 ELISA Assay: Aβ40; assay type: cell-based; details: Cricetulus griseus; CHO cells carrying the APP-REP-NL plasmid, 22 hours, sandwich ELISA of medium
Procedure: (§1) Pharmacology: Aβ40/42 ELISA Assay
(§2) Compounds are diluted from DMSO stocks to 2 μM and below in a cell culture medium. Compounds are then applied to CHO cells carrying the APP-REP-NL plasmid [Sudhir et. al, J. Biol. Chem. 267:25602-25608 (1992)] for a period of 22 hours. After the conditioning period, medium is collected, diluted in assay buffer containing protein, and samples, controls, and synthetic peptide standards are incubated on a prepared ELISA plate. Using a sandwich ELISA with antibodies specifically directed against the carboxyl terminus of beta amyloid 40 or 42 [analogous to the method reported by Haugabook et al., J. Neurosci. Methods 108:171-179 (2001) but using goat anti-mouse IgGl (source: Southern Biotech) as the anchor, 6E10 as the capture antibody (Source: SENETEK), rabbit antiαβ40 and antiαβB42 (source: QCB) and APL-donkey anti-rabbit IgG (H+L, source: Southern Biotech) as the detection antibody], the effect of the compound treatment on the cellular production of extracellular beta amyloid is quantified. Cells treated with compound are subsequently incubated in cell culture medium containing […]. After a short incubation period, MTS/medium containing plates are read in a spectrophotometer to determine the extent to which compound toxicity affected the cell's metabolism and ability to synthesize beta amyloid.
(§3) Test Samples: compound samples are supplied as 20 mM stock solutions in a 100% DMSO solution.
(§4) APP-REP-NL cells: Qualified cell lines are carried from week to week using 1:100 dilutions and are cultured in DMEM supplemented with 1× antibiotic/antimycotic, 200 μg/ml of G418 antibiotic, and 10% certified fetal calf serum. Cells are also banked in liquid nitrogen. Periodically, beta amyloid production is assessed, and cells are either kept in culture or replaced with progenitors at full expression.
(§5) Antibodies: Are from certified lots that have already been qualified in this assay. Antibodies are stored in small frozen aliquots at −80° C. that are thawed and used.
(§6) A compound is considered active if it has an EC50 for Aβ 40 reduction of <100 μM and no toxicity at doses in the vicinity the EC50.

beta amyloid 42 = assay: Aβ40/42 ELISA Assay: Aβ42; assay type: cell-based; details: Cricetulus griseus; CHO cells carrying the APP-REP-NL plasmid, 22 hours, sandwich ELISA of medium
Procedure: as §1, §2, §3, §4, §5, §6

SMILES | pEC50 (beta amyloid 40) | pEC50 (beta amyloid 42) | melting point [°C]
O=S(=O)(N[C@H](CO)C(CC(F)(F)F)CC(F)(F)F)c1ccc(Cl)cc1 [Example 2, 4-Chloro-N-[(1S)-4,4,4-trifluoro-1-hydroxymethyl-2-(2,2,2-trifluoro-ethyl)-butyl]-benzenesulfonamide] | 6.48 | 6.69 | 186 to 187
CCc1ccc(S(=O)(=O)NC(CO)C(C(F)(F)F)C(F)(F)F)cc1 (stereo not drawn) [Example 9, 4-ethyl-N-[3,3,3-trifluoro-1-(hydroxymethyl)-2-(trifluoromethyl)propyl]benzenesulfonamide] | 5.14 | 5.17 | 
CC(C)c1ccc(S(=O)(=O)NC(CO)C(C(F)(F)F)C(F)(F)F)cc1 (stereo not drawn) [Example 10, 4-isopropyl-N-[3,3,3-trifluoro-1-(hydroxymethyl)-2-(trifluoromethyl)propyl]benzenesulfonamide] | 4.75 | 4.36 | 
O=S(=O)(NC(CO)C(C(F)(F)F)C(F)(F)F)c1ccc(Cl)c(C(F)(F)F)c1 (stereo not drawn) [Example 4, 4-Chloro-N-(3,3,3-trifluoro-1-hydroxymethyl-2-trifluoromethyl-propyl)-3-trifluoromethyl-benzenesulfonamide] | 4.42 | 4.05 | 
C[C@H]([C@@H](CO)NS(=O)(=O)c1ccc(Cl)cc1)C(F)(F)F [Example 44, 4-Chloro-N-[(1S,2R)-3,3,3-trifluoro-1-(hydroxymethyl)-2-methylpropyl]benzenesulfonamide] | 5.53 | 5.45 | 
O=S(=O)(NC(CO)C(CC(F)(F)F)CC(F)(F)F)c1ccc(Cl)cc1 (stereo not drawn) [Example 45, 4-Chloro-N-[4,4,4-trifluoro-1-hydroxymethyl-2-(2,2,2-trifluoro-ethyl)-butyl]-benzenesulfonamide] | 6.29 | 6.30 | 
O=S(=O)(NC(CO)C(C(F)(F)F)C(F)(F)F)c1ccc(OC(F)F)cc1 (stereo not drawn) [Example 7, 4-(difluoromethoxy)-N-[3,3,3-trifluoro-1-(hydroxymethyl)-2-(trifluoromethyl)propyl]benzenesulfonamide] | 5.35 | 5.40 | 
O=S(=O)(NC(CO)C(C(F)(F)F)C(F)(F)F)c1ccccc1 (stereo not drawn) [Example 33, N-(3,3,3-trifluoro-1-hydroxymethyl-2-trifluoromethyl-propyl)-benzenesulfonamide] | 5.20 | 5.15 | 
Cc1ccc(S(=O)(=O)NC(CO)C(C(F)(F)F)C(F)(F)F)cc1 (stereo not drawn) [Example 14, 4-methyl-N-[3,3,3-trifluoro-1-(hydroxymethyl)-2-(trifluoromethyl)propyl]benzenesulfonamide] | 5.82 | 5.90 | 
O=S(=O)(NC(CO)C(C(F)(F)F)C(F)(F)F)c1cc(F)c(F)c(F)c1 (stereo not drawn) [Example 42, 3,4,5-Trifluoro-N-(3,3,3-trifluoro-1-hydroxymethyl-2-trifluoromethyl-propyl)-benzene sulfonamide] | 5.18 | 5.26 | 
Cc1cccc(S(=O)(=O)NC(CO)C(C(F)(F)F)C(F)(F)F)c1 (stereo not drawn) [Example 15, 3-methyl-N-[3,3,3-trifluoro-1-(hydroxymethyl)-2-(trifluoromethyl)propyl]benzenesulfonamide] | 4.82 | 4.84 | 

Continued, values first:

pEC50 (beta amyloid 40) | pEC50 (beta amyloid 42) | melting point [°C] | SMILES
5.96 | 5.94 |  | O=S(=O)(NC(CO)C(C(F)(F)F)C(F)(F)F)c1ccc(Cl)c(F)c1 (stereo not drawn) [Example 24, 4-Chloro-3-fluoro-N-(3,3,3-trifluoro-1-hydroxymethyl-2-trifluoromethyl-propyl)-benzenesulfonamide]
4.59 | 4.61 |  | O=S(=O)(NC(CO)C(C(F)(F)F)C(F)(F)F)c1ccccc1Cl (stereo not drawn) [Example 30, 2-chloro-N-(3,3,3-trifluoro-1-hydroxymethyl-2-trifluoromethyl-propyl)-benzenesulfonamide]
4.56 | 4.57 |  | O=[N+]([O-])c1ccc(S(=O)(=O)NC(CO)C(C(F)(F)F)C(F)(F)F)cc1 (stereo not drawn) [Example 19, 4-nitro-N-(3,3,3-trifluoro-1-hydroxymethyl-2-trifluoromethyl-propyl)-benzenesulfonamide]
4.34 | 4.11 |  | O=[N+]([O-])c1cc(S(=O)(=O)NC(CO)C(C(F)(F)F)C(F)(F)F)ccc1Cl (stereo not drawn) [Example 5, 4-Chloro-3-nitro-N-(3,3,3-trifluoro-1-hydroxymethyl-2-trifluoromethyl-propyl)-benzenesulfonamide]
5.07 | 5.19 |  | O=S(=O)(NC(CO)C(C(F)(F)F)C(F)(F)F)c1ccc(OC(F)(F)F)cc1 (stereo not drawn) [Example 20, N-(3,3,3-trifluoro-1-hydroxymethyl-2-trifluoromethyl-propyl)-4-trifluoromethoxy-benzenesulfonamide]
5.85 | 5.93 |  | C[C@@H]([C@@H](CO)NS(=O)(=O)c1ccc(C(F)(F)F)cc1)C(F)(F)F [Example 47, N-[(1S,2S)-3,3,3-Trifluoro-1-(hydroxymethyl)-2-methylpropyl]-4-(trifluoromethyl)benzenesulfonamide]
5.17 | 5.06 |  | O=S(=O)(NC(CO)C(C(F)(F)F)C(F)(F)F)c1ccc(F)c(Cl)c1 (stereo not drawn) [Example 39, 3-chloro-4-fluoro-N-[3,3,3-trifluoro-1-(hydroxymethyl)-2-(trifluoromethyl)propyl]benzenesulfonamide]
4.49 | 4.34 |  | O=S(=O)(NC(CO)C(C(F)(F)F)C(F)(F)F)c1ccc(F)c(F)c1F (stereo not drawn) [Example 40, 2,3,4-trifluoro-N-(3,3,3-trifluoro-1-hydroxymethyl-2-trifluoromethyl-propyl)-benzenesulfonamide]
5.65 | 5.62 |  | O=S(=O)(NC(CO)C(C(F)(F)F)C(F)(F)F)c1ccc(F)c(F)c1 (stereo not drawn) [Example 34, 3,4-difluoro-N-(3,3,3-trifluoro-1-hydroxymethyl-2-trifluoromethyl-propyl)-benzenesulfonamide]
5.25 | 5.27 |  | O=S(=O)(N[C@H](CO)C(C(F)(F)F)C(F)(F)F)c1ccc(Cl)c(Cl)c1 [Example 41, (S)-3,4-Dichloro-N-[3,3,3-trifluoro-1-(hydroxymethyl)-2-(trifluoromethyl)propyl]benzene sulfonamide]
4.62 | 4.43 |  | O=S(=O)(NC(CO)C(C(F)(F)F)C(F)(F)F)c1cccc(Cl)c1 (stereo not drawn) [Example 29, 3-chloro-N-(3,3,3-trifluoro-1-hydroxymethyl-2-trifluoromethyl-propyl)-benzenesulfonamide]
